From patent US20260347338A1, “PYRIMIDINE/PYRIDINE DERIVATIVES OR SALTS THEREOF AND PHARMACEUTICAL COMPOSITIONS COMPRISING THE SAME” (YUHAN CORPORATION, priority 2023, published 2026) come the findings set out here.

Structures can show the parent of a compound that is named as a salt. Bounds are passed on as bounds.

The target of the test is T1, human recombinant HPK1 (Homo sapiens, UniProt Q92918).
T1 construct: purchased BPS Bioscience
T1 sequence (Q92918 whole entry): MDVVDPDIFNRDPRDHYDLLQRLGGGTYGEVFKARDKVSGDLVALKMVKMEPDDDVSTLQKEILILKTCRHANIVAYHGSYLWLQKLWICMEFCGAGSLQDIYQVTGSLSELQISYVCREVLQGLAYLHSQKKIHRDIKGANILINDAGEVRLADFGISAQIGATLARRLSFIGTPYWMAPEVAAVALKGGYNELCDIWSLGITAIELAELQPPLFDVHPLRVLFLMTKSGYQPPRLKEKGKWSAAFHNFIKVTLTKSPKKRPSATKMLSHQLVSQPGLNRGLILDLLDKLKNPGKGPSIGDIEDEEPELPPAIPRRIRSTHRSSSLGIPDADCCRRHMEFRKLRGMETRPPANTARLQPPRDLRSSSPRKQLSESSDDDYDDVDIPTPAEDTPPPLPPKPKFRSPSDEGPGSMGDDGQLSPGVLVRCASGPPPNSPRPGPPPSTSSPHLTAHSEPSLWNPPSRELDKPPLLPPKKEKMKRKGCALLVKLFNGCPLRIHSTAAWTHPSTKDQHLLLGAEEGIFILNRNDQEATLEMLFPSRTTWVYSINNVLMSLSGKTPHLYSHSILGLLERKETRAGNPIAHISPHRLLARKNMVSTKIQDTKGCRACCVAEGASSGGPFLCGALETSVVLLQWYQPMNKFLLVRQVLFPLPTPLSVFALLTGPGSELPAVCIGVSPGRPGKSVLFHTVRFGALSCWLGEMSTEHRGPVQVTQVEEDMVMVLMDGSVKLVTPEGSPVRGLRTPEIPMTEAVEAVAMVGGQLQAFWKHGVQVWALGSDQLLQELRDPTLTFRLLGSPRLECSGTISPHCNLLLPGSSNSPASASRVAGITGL
In words: Inhibitory activity against human recombinant HPK1 (TR-FRET). It is filed as biochemical. To be noted: ULight-p70S6K peptide, ATP at Km, room temperature, 1 hour, 0.32 to 1000 nM compound. An outline of the steps:
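Recombinant human HPK1 with ULight-p70S6K peptide and ATP at Km, 1 h at room temperature in HEPES pH 7.4 buffer with Mg2+, Mn2+, EGTA, DTT; compounds 0.32–1000 nM final. EDTA stop, Eu-anti-phosphopeptide TR-FRET read (665 nm); IC50 from % inhibition versus DMSO, binned A–D at 10, 50, 100 nM.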
Background: In TR-FRET formats the signal depends on donor and acceptor labels being close together.
A word on the IC50: it is the midpoint of a concentration-inhibition curve. For `COc1cccc(F)c1-c1nccc(Nc2cc(N3C[C@@H](N)C[C@H](F)C3)c(-c3cnn(CC(F)(F)F)c3)cn2)n1` [Example 332, N-(4-((3S,5S)-3-amino-5-fluoropiperidin-1-yl)-5-(1-(2,2,2-trifluoroethyl)-1H-pyrazol-4-yl)pyridin-2-yl)-2-(2-fluoro-6-methoxyphenyl)pyrimidin-4-amine hydrochloride], the IC50 was at most 10 nM.
As to `COc1cc(F)cc(F)c1-c1nccc(Nc2cc(N3C[C@@H](N)C[C@H](F)C3)c(-c3cnn(CC(F)(F)F)c3)cn2)n1` [Example 333, N-(4-((3S,5S)-3-amino-5-fluoropiperidin-1-yl)-5-(1-(2,2,2-trifluoroethyl)-1H-pyrazol-4-yl)pyridin-2-yl)-2-(2,4-difluoro-6-methoxyphenyl)pyrimidin-4-amine hydrochloride], the half-maximal inhibitory concentration (IC50) is at most 10 nM.
With `COc1cccc(F)c1-c1nc(Nc2cc(N3CC[C@@H](F)[C@H](N)C3)c(-c3cnn(C(F)F)c3)cn2)ccc1[N+](=O)[O-]` [Example 334, 4-((3R,4R)-3-amino-4-fluoropiperidin-1-yl)-5-(1-(difluoromethyl)-1H-pyrazol-4-yl)-N-(6-(2-fluoro-6-methoxyphenyl)-5-nitropyridin-2-yl)pyridin-2-amine hydrochloride], the IC50 is at most 10 nM.
Turning to `COc1cc(F)cc(F)c1-c1nccc(Nc2cc(N3C[C@@H](N)C[C@@H](F)C3)c(-c3cnn(C(C)C)c3)cn2)n1` [Example 335, N-(4-((3S,5R)-3-amino-5-fluoropiperidin-1-yl)-5-(1-isopropyl-1H-pyrazol-4-yl)pyridin-2-yl)-2-(2,4-difluoro-6-methoxyphenyl)pyrimidin-4-amine], the IC50 is at most 10 nM.
Next, `COc1cc(F)cc(F)c1-c1nccc(Nc2cc(N3C[C@@H](N)C[C@H](F)C3)c(-c3cnn(C(C)C)c3)cn2)n1` [Example 336, N-(4-((3S,5S)-3-amino-5-fluoropiperidin-1-yl)-5-(1-isopropyl-1H-pyrazol-4-yl)pyridin-2-yl)-2-(2,4-difluoro-6-methoxyphenyl)pyrimidin-4-amine]: at most 10 nM; `COc1cccc(F)c1-c1nc(Nc2cc(N3CC[C@@H](C)[C@H](N)C3)c(-c3cnn(C(F)F)c3)cn2)ccc1C#N` [Example 337, 6-((4-((3S,4R)-3-amino-4-methylpiperidin-1-yl)-5-(1-(difluoromethyl)-1H-pyrazol-4-yl)pyridin-2-yl)amino)-2-(2-fluoro-6-methoxyphenyl)-nicotinonitrile hydrochloride]: at most 10 nM; `COc1cc(F)cc(F)c1-c1nc(Nc2cc(N3CC[C@@H](C)[C@H](N)C3)c(-c3cnn(C(F)F)c3)cn2)ccc1C#N` [Example 338, 6-((4-((3S,4R)-3-amino-4-methylpiperidin-1-yl)-5-(1-(difluoromethyl)-1H-pyrazol-4-yl)pyridin-2-yl)amino)-2-(2,4-difluoro-6-methoxyphenyl)nicotinonitrile hydrochloride]: at most 10 nM.
In the case of `COc1cc(F)cc(F)c1-c1nccc(Nc2cc(N3CC[C@@H](F)[C@H](N)C3)c(-c3cnn(C(C)C)c3)cn2)n1` [Example 339, N-(4-((3R,4R)-3-amino-4-fluoropiperidin-1-yl)-5-(1-isopropyl-1H-pyrazol-4-yl)pyridin-2-yl)-2-(2,4-difluoro-6-methoxyphenyl)pyrimidin-4-amine hydrochloride], the IC50 was at most 10 nM.
Next, `COc1cc(F)cc(F)c1-c1nc(Nc2cc(N3CC[C@@H](F)[C@H](N)C3)c(-c3cnn(C(C)C)c3)cn2)ccc1C#N` [Example 340, 6-((4-((3R,4R)-3-amino-4-fluoropiperidin-1-yl)-5-(1-isopropyl-1H-pyrazol-4-yl)pyridin-2-yl)amino)-2-(2,4-difluoro-6-methoxyphenyl)nicotinonitrile hydrochloride]: at most 10 nM; `COc1cccc(F)c1-c1nc(Nc2cc(N3CC[C@@H](F)[C@H](N)C3)c(-c3cnn(C(F)F)c3)cn2)ccc1F` [Example 341, 4-((3R,4R)-3-amino-4-fluoropiperidin-1-yl)-5-(1-(difluoromethyl)-1H-pyrazol-4-yl)-N-(5-fluoro-6-(2-fluoro-6-methoxyphenyl)pyridin-2-yl)pyridin-2-amine hydrochloride]: at most 10 nM; “(S)-1-(6′-ethoxy-6-((2-(2-fluoro-6-methoxyphenyl)pyrimidin-4-yl)amino)-[3,3′-bipyridin]-4-yl)piperidin-3-ol [Example 56]”: 10 to 50 nM.
Under “(S)-N-(4-(3-aminopiperidin-1-yl)-5-((tetrahydro-2H-pyran-4-yl)ethynyl)pyridin-2-yl)-2-(7-fluoroquinoxalin-6-yl)pyrimidin-4-amine hydrochloride [Example 90]” stands at most 10 nM.
